According to PMC7179901, “The aerobic respiratory chain of Pseudomonas aeruginosa cultured in artificial urine media: Role of NQR and terminal oxidases” (PLoS ONE, 2020):

Tests used:
[1] = target: T1, NQR (Pseudomonas aeruginosa, UniProt Q9HZK7+Q9HZK9); experiment: HQNO titration of NADH-dependent oxygen consumption in isolated membranes; type: biochemical
T1 construct: gene nqrB; native NQR complex in LB and mAUM membranes; with six-subunit complex NqrA-F

[2] = target: T2, purified P. aeruginosa NQR (Pa-NQR) (Pseudomonas aeruginosa, UniProt Q9HZL1); experiment: ubiquinone reductase activity at […] nm; type: biochemical; conditions: 50 μM ubiquinone-1, KHE buffer pH 7.5
T2 construct: gene nqrF; […]; DDM-solubilized, Ni-NTA (tag not described) and DEAE purified; six-subunit complex; with Na(+)-translocating NADH-quinone reductase subunit A; Na(+)-translocating NADH-quinone reductase subunit B; Na(+)-translocating NADH-quinone reductase subunit C; Na(+)-translocating NADH-quinone reductase subunit D; Na(+)-translocating NADH-quinone reductase subunit E
T2 sequence (Q9HZL1 whole entry): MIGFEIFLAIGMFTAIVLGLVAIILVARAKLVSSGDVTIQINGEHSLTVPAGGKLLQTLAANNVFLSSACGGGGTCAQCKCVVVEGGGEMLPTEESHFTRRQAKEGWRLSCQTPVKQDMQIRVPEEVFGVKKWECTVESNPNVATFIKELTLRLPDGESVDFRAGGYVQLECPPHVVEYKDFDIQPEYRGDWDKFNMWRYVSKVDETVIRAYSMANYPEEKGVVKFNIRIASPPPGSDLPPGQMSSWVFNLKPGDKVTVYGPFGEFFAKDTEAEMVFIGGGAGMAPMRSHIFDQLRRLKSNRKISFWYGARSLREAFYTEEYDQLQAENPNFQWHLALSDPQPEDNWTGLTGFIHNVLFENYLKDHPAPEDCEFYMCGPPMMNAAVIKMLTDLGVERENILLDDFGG
T2 sequence (Q9HZK6 whole entry partner): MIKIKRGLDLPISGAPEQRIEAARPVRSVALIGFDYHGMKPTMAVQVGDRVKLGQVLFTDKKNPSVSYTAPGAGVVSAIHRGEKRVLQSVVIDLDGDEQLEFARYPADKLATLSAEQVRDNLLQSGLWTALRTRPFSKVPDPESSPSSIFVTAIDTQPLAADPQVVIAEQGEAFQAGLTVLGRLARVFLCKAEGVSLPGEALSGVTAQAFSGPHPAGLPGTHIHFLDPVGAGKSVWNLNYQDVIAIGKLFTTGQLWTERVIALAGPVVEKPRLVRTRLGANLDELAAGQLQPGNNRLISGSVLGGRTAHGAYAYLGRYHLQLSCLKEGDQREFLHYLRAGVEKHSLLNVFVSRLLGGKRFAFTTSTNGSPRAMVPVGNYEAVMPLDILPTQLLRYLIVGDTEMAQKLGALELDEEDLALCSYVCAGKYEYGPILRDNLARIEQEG
T2 sequence (Q9HZK7 whole entry partner): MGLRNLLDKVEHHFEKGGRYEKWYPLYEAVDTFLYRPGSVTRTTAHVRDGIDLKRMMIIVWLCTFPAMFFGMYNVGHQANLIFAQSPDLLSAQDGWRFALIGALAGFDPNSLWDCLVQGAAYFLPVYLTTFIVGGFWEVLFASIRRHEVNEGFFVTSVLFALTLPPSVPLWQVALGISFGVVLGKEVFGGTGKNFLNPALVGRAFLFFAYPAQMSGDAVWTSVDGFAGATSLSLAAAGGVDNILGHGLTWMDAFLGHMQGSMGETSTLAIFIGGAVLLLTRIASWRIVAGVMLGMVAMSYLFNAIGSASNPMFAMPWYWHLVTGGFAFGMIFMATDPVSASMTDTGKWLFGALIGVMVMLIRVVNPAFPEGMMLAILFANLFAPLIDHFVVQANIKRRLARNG
T2 sequence (Q9HZK8 whole entry partner): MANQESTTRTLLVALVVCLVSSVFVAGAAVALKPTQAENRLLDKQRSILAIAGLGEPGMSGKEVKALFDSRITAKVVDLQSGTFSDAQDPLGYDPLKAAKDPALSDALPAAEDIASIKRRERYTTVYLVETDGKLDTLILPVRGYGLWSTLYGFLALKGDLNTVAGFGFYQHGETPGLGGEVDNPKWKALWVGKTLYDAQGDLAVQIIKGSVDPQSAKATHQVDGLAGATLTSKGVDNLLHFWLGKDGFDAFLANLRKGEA
T2 sequence (Q9HZK9 whole entry partner): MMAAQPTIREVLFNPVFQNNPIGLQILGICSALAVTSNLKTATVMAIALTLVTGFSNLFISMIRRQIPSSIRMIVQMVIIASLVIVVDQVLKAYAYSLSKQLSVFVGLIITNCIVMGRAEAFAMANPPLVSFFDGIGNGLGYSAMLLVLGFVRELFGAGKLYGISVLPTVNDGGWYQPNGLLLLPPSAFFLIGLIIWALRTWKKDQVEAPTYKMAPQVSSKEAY
T2 sequence (Q9HZL0 whole entry partner): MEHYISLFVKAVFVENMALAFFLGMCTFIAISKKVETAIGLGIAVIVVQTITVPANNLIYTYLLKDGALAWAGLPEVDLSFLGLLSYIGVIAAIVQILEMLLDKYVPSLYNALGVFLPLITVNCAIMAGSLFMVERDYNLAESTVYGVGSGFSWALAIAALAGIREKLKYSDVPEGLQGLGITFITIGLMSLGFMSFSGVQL

T1 sequence (Q9HZK9 whole entry): as the sequence (Q9HZK9 whole entry partner) above
T1 sequence (Q9HZL1 whole entry, further chain): as the sequence (Q9HZL1 whole entry) above
T1 sequence (Q9HZK7 whole entry): as the sequence (Q9HZK7 whole entry partner) above
T1 sequence (Q9HZK6 whole entry, further chain): as the sequence (Q9HZK6 whole entry partner) above
T1 sequence (Q9HZL0 whole entry, further chain): as the sequence (Q9HZL0 whole entry partner) above
T1 sequence (Q9HZK8 whole entry, further chain): as the sequence (Q9HZK8 whole entry partner) above

CCCCCCCc1cc(O)c2ccccc2[n+]1[O-] [HQNO]
Ki [1]: 2000 nM

NC(=O)C1=CN([C@@H]2O[C@H](COP(=O)(O)OP(=O)(O)OC[C@H]3O[C@@H](n4cnc5c(N)ncnc54)[C@H](O)[C@@H]3O)[C@@H](O)[C@H]2O)C=CC1 [NADH]
ubiquinone reductase activity at 282 nm ([2]; 250 μM NADH): purified P. aeruginosa NQR (F) using as substrates NADH (black) or deamino NADH

NC(=O)C1=CN([C@@H]2O[C@H](COP(=O)(O)OP(=O)(O)OC[C@H]3O[C@@H](n4cnc5c(=O)[nH]cnc54)[C@H](O)[C@@H]3O)[C@@H](O)[C@H]2O)C=CC1 [deamino NADH]
ubiquinone reductase activity at 282 nm ([2]; 250 μM deamino NADH): purified P. aeruginosa NQR (F) using as substrates NADH (black) or deamino NADH
